System: dihydrofolate reductase (DHFR)
Settings: MT 2.2×10^−5 M; 30° C.; absorbance at 340 nm
Experimental: Reagents and test samples were added to 3 ml disposable cuvettes to the required volume of distilled water in the following order: H2O (0.1-0 ml), 1.5 M Na-acetate buffer (1 ml), 1.8 M KCl (1 ml), 3 mM NADPH (0.15 ml), test solution in PBS (0-0.1 ml), dihydrofolate reductase (DHFR) (ca. 0.01 Uμl) (5 μl). All reagents were purchased from Sigma. The DHFR was introduced, mixed and incubated at 30° C. for 2 min. The reaction was initiated by the addition of dihydrofolic acid (3 mM, 0.15 ml), and the decrease in absorbance with the time at 340 nm was followed.
A control reaction, which contained 0.1 ml of PBS as test solution was included.

CN(Cc1cnc2nc(N)nc(N)c2n1)c1ccc(C(=O)N[C@@H](CCC(=O)O)C(=O)O)cc1 [MT]
inhibition of DHFR activity: completely inhibited

Source: patent US6844328B2, “Polysaccharidic esters of N-derivatives of glutamic acid” (Eurand Pharmaceuticals Ltd., priority 2000, dated 2005)
